Marks after values point to notes of the source that are not given here.
Columns and labels:
Type in all cases: physicochemical
[1] = Equilibration of Forms 1 and 2, singularly and as mixtures, in MEK and THF alone and with 5% water; conditions: 5-10 °C, both equilibration temperatures
From the text: The influence of the initial polymorphic composition on the fate of samples was investigated by equilibration of the either the single polymorphs or an equal mixture of both in anhydrous MEK and THF as well as in the same solvents doped with 5% water.
The results obtained (Table 13) reveal that in anhydrous media the two polymorphs retain their structural integrity, if present singularly (Table 13, Entries 1, 2, 4 and 5). […] (Table 13, Entry 4) which may be attributable to the presence of traces of moisture in a highly hygroscopic solvent.
The results observed when 5% water was admixed to the two solvents indicate that the predominance of the two forms reversed under these conditions, taking kinetic factors into account. In aqueous MEK (5% water) the single polymorphs were again unchanged for the duration of the experiment (Table 13, Entries 7 and 8). In contrast, the binary polymorphic mixture converted into Form 1 in this medium (Table 13, Entry 9). In aqueous THF (5% water) the dominance of Form 1 as the most preferred polymorph was especially evident. In this environment the suspension of Form 1 remained unchanged (Table 13, Entry 10), consistent with the outcome observed for aq MEK under the same conditions.
However, in THF doped with 5% water, both the suspension comprising the binary mixture, as well as that composed of the Form 2 polymorph alone, were transformed into suspensions containing only Form 1 (Table 13, Entries 11 and 12).

[2] = Fate of Form 2 slurried in single solvents, acetone, water and acetone/water mixtures, XRPD
Description: In order to determine the influence of water in determining the output from such conditioning experiments, the behaviour of the Form 2 polymorph was examined in nominally dry organic media and also in monophasic, aqueous mixtures with water miscible solvents.
The same result was also obtained when the conditioning medium was either neat acetone (Table 9, Entries 1 and 6) or water alone (Table 9, Entries 5 and 10). However, in acetone-water mixtures at 50° C. over 24 hr there was clear evidence that in two instances Form 2 had been transformed into Form 1 (Table 9, Entries 7 and 9).

[3] = Fate of Form 2 slurried in 1,4-dioxane/water mixtures, XRPD; conditions: 1,4-dioxane
Description: In the presence of 10% water the Form 1 polymorph is evident in the slurry mixture within an hour at 25° C. […] This ternary system behaved similarly at 50° C. However, at the higher temperature of 65° C. the rate of turnover is increased such that Form 1 was generated after 3 hr. Consistent with the data obtained from the experiments described above, increasing the proportion of water to 80% in this system was sufficient to halt the polymorphic interconversion at 25° C., 50° C. and even at 65° C.

[4] = Fate of Form 2 slurried in MEK/water mixtures, XRPD; conditions: MEK, 25 °C, 24 hours
Description: (Table 12). It was observed that Form 2 integrity was maintained for at least 24 hours at the lower temperature until the water content exceeded 6%, despite an increase in solubility of Compound I from 19 to 30 mg/ml (data not shown).

[5] = Fate of Form 2 slurried in THF and THF/water mixtures, XRPD
Description: To investigate the generality of this unforeseen transformation a similar experiment was carried out in THF and in THF/water mixtures. […] At 25° C. those mixtures comprising 10% and 20% water returned Form 1 after 4 and 24 hours respectively (Table 10, Entries 2 and 3).

[6] = Fate of Form 2 slurried in MEK/water mixtures, XRPD; conditions: MEK, 50 °C, 24 hour time point

In the case of `Cc1cc(N2CCN(c3ccc(C(=O)Nc4ccc(F)cc4)cc3)CC2)ccc1OC[C@@H]1CO[C@@](Cn2cncn2)(c2ccc(F)cc2F)C1` [Form 1, 4-(4-(4-(((3R,5R)-5-((1H-1,2,4-triazol-1-yl)methyl)-5-(2,4-difluorophenyl)tetrahydrofuran-3-yl)methoxy)-3-methylphenyl)piperazin-1-yl)-N-(4-fluorophenyl)benzamide], the “Form by XRPD Post Equilibration” value ([1]; MEK (anhydrous)) is reported as 1, the “Form by XRPD Post Equilibration” value ([1]; MEK/5% Water) is reported as 1 and the “Form by XRPD Post Equilibration” value ([1]; THF (anhydrous), Form 1 input: some evidence of Form 2 at 10 °C) is reported as 1^b. The “Form by XRPD Post Equilibration” value ([1]; THF/5% Water) was 1.

With `Cc1cc(N2CCN(c3ccc(C(=O)Nc4ccc(F)cc4)cc3)CC2)ccc1OC[C@@H]1CO[C@@](Cn2cncn2)(c2ccc(F)cc2F)C1` [Form 2, 4-(4-(4-(((3R,5R)-5-((1H-1,2,4-triazol-1-yl)methyl)-5-(2,4-difluorophenyl)tetrahydrofuran-3-yl)methoxy)-3-methylphenyl)piperazin-1-yl)-N-(4-fluorophenyl)benzamide] the “Polymorphic Form by XRPD” value ([2]; acetone, water 0 vol %, 25 °C, 1 and 4 hr) was 2, the “Polymorphic Form by XRPD” value ([2]; acetone, water 0 vol %, 25 °C, 24 hr) was 2 and the “Polymorphic Form by XRPD” value ([2]; acetone, water 0 vol %, 50 °C, 1 and 4 hr) was 2. The “Polymorphic Form by XRPD” value ([2]; acetone, water 0 vol %, 50 °C, 24 hr) was 2, the “Polymorphic Form by XRPD” value ([2]; acetone/water, water 10 vol %, 25 °C, 1 and 4 hr) was 2 and the “Polymorphic Form by XRPD” value ([2]; acetone/water, water 10 vol %, 25 °C, 24 hr) was 2. The “Polymorphic Form by XRPD” value ([2]; acetone/water, water 10 vol %, 50 °C, 1 and 4 hr) was 2, the “Polymorphic Form by XRPD” value ([2]; acetone/water, water 10 vol %, 50 °C, 24 hr) was 1 and the “Polymorphic Form by XRPD” value ([2]; acetone/water, water 20 vol %, 25 °C, 1 and 4 hr) was 2. The “Polymorphic Form by XRPD” value ([2]; acetone/water, water 20 vol %, 25 °C, 24 hr) was 2, the “Polymorphic Form by XRPD” value ([2]; acetone/water, water 20 vol %, 50 °C, 1 and 4 hr) was 2 and the “Polymorphic Form by XRPD” value ([2]; acetone/water, water 20 vol %, 50 °C, 24 hr) was 2. For the same compound, the “Polymorphic Form by XRPD” value ([2]; acetone/water, water 40 vol %, 25 °C, 1 and 4 hr) was 2, the “Polymorphic Form by XRPD” value ([2]; acetone/water, water 40 vol %, 25 °C, 24 hr) was 2 and the “Polymorphic Form by XRPD” value ([2]; acetone/water, water 40 vol %, 50 °C, 1 and 4 hr) was 2. For the same compound, the “Polymorphic Form by XRPD” value ([2]; acetone/water, water 40 vol %, 50 °C, 24 hr) was 1, the “change in crystal structure on suspension in sole solvent” value ([2]; heptane, TBME, toluene or cyclohexane as sole solvent, 25 or 50 °C, 24 hr) was “no perceptible change in crystal structure” and the “Polymorphic Form by XRPD” value ([2]; water 100 vol %, 25 °C, 1 and 4 hr) was 2. For the same compound, the “Polymorphic Form by XRPD” value ([2]; water 100 vol %, 25 °C, 24 hr) was 2, the “Polymorphic Form by XRPD” value ([2]; water 100 vol %, 50 °C, 1 and 4 hr) was 2 and the “Polymorphic Form by XRPD” value ([2]; water 100 vol %, 50 °C, 24 hr) was 2. For the same compound, the “Polymorphic Form by XRPD” value ([3]; 10% water, 25 °C, 1 hr, trace of Form 2 remaining) was 1^†, the “Polymorphic Form by XRPD” value ([3]; 10% water, 25 °C, 3 hr, trace of Form 2 remaining) was 1^† and the “Polymorphic Form by XRPD” value ([3]; 10% water, 25 °C, 6 hr, trace of Form 2 remaining) was 1^†. The “Polymorphic Form by XRPD” value ([3]; 10% water, 25 °C, 24 hr, trace of Form 2 remaining) was 1^†, the “Polymorphic Form by XRPD” value ([3]; 10% water, 50 °C, 24 hr) was 1 and the “Polymorphic Form by XRPD” value ([3]; 40% water, 25 °C, 1 hr) was 2. For the same compound, the “Polymorphic Form by XRPD” value ([3]; 40% water, 25 °C, 3 hr) was 2, the “Polymorphic Form by XRPD” value ([3]; 40% water, 25 °C, 6 hr) was 2 and the “Polymorphic Form by XRPD” value ([3]; 40% water, 25 °C, 24 hr) was 1. The “Polymorphic Form by XRPD” value ([3]; 40% water, 50 °C, 1 hr) was 2, the “Polymorphic Form by XRPD” value ([3]; 40% water, 50 °C, 3 hr) was 2 and the “Polymorphic Form by XRPD” value ([3]; 40% water, 50 °C, 6 hr) was 2. For the same compound, the “Polymorphic Form by XRPD” value ([3]; 40% water, 50 °C, 24 hr) was 1, the “Polymorphic Form by XRPD” value ([3]; 40% water, 65 °C, 1 hr) was 2 and the “Polymorphic Form by XRPD” value ([3]; 40% water, 65 °C, 3 hr) was 1. The “Polymorphic Form by XRPD” value ([3]; 40% water, 65 °C, 6 hr) was 1, the “Polymorphic Form by XRPD” value ([3]; 40% water, 65 °C, 24 hr) was 1 and the “Polymorphic Form by XRPD” value ([3]; 80% water, 25 °C, 1 hr) was 2. For the same compound, the “Polymorphic Form by XRPD” value ([3]; 80% water, 25 °C, 3 hr) was 2, the “Polymorphic Form by XRPD” value ([3]; 80% water, 25 °C, 6 hr) was 2 and the “Polymorphic Form by XRPD” value ([3]; 80% water, 25 °C, 24 hr) was 2. For the same compound, the “Polymorphic Form by XRPD” value ([3]; 80% water, 50 °C, 1 hr) was 2, the “Polymorphic Form by XRPD” value ([3]; 80% water, 50 °C, 3 hr) was 2 and the “Polymorphic Form by XRPD” value ([3]; 80% water, 50 °C, 6 hr) was 2. The “Polymorphic Form by XRPD” value ([3]; 80% water, 50 °C, 24 hr) was 2, the “Polymorphic Form by XRPD” value ([3]; 80% water, 65 °C, 1 hr) was 2 and the “Polymorphic Form by XRPD” value ([3]; 80% water, 65 °C, 3 hr) was 2. For the same compound, the “Polymorphic Form by XRPD” value ([3]; 80% water, 65 °C, 6 hr) was 2, the “Polymorphic Form by XRPD” value ([3]; 80% water, 65 °C, 24 hr) was 2 and the “Polymorphic Form by XRPD” value ([4]; water 1 % vol) was 2. The “Polymorphic Form by XRPD” value ([4]; water 2 % vol) was 2, the “Polymorphic Form by XRPD” value ([4]; water 4 % vol) was 2 and the “Polymorphic Form by XRPD” value ([4]; water 6 % vol) was 2. For the same compound, the “Polymorphic Form by XRPD” value ([4]; water 8 % vol) was 1, the “Polymorphic Form by XRPD” value ([5]; THF, water 0 vol %, 25 °C, 1 hr) was 2 and the “Polymorphic Form by XRPD” value ([5]; THF, water 0 vol %, 25 °C, 4 hr) was 2. For the same compound, the “Polymorphic Form by XRPD” value ([5]; THF, water 0 vol %, 50 °C, 1 hr) was 2, the “Polymorphic Form by XRPD” value ([5]; THF, water 0 vol %, 50 °C, 4 hr) was 2 and the “Polymorphic Form by XRPD” value ([5]; THF/water, water 10 vol %, 25 °C, 1 hr) was 2. For the same compound, the “Polymorphic Form by XRPD” value ([5]; THF/water, water 10 vol %, 25 °C, 4 hr) was 1, the “Polymorphic Form by XRPD” value ([5]; THF/water, water 10 vol %, 25 °C, 24 hr) was 1 and the “Polymorphic Form by XRPD” value ([5]; THF/water, water 10 vol %, 50 °C, 1 hr) was 1. For the same compound, the “Polymorphic Form by XRPD” value ([5]; THF/water, water 10 vol %, 50 °C, 4 hr) was 1, the “Polymorphic Form by XRPD” value ([5]; THF/water, water 10 vol %, 50 °C, 24 hr) was 1 and the “Polymorphic Form by XRPD” value ([5]; THF/water, water 20 vol %, 25 °C, 1 hr) was 2. The “Polymorphic Form by XRPD” value ([5]; THF/water, water 20 vol %, 25 °C, 4 hr) was 2, the “Polymorphic Form by XRPD” value ([5]; THF/water, water 20 vol %, 25 °C, 24 hr) was 1 and the “Polymorphic Form by XRPD” value ([5]; THF/water, water 20 vol %, 50 °C, 1 hr) was 1. For the same compound, the “Polymorphic Form by XRPD” value ([5]; THF/water, water 20 vol %, 50 °C, 4 hr) was 1, the “Polymorphic Form by XRPD” value ([5]; THF/water, water 20 vol %, 50 °C, 24 hr) was 1 and the “Polymorphic Form by XRPD” value ([5]; THF/water, water 40 vol %, 25 °C, 1 hr) was 2. For the same compound, the “Polymorphic Form by XRPD” value ([5]; THF/water, water 40 vol %, 25 °C, 4 hr) was 2, the “Polymorphic Form by XRPD” value ([5]; THF/water, water 40 vol %, 25 °C, 24 hr) was 2 and the “Polymorphic Form by XRPD” value ([5]; THF/water, water 40 vol %, 50 °C, 1 hr) was 1. For the same compound, the “Polymorphic Form by XRPD” value ([5]; THF/water, water 40 vol %, 50 °C, 4 hr) was 1, the “Polymorphic Form by XRPD” value ([5]; THF/water, water 40 vol %, 50 °C, 24 hr) was 1 and the “Polymorphic Form by XRPD” value ([6]; water 1 % vol) was 2. The “Polymorphic Form by XRPD” value ([6]; water 2 % vol) was 2, the “Polymorphic Form by XRPD” value ([6]; water 4 % vol) was 1 and the “Polymorphic Form by XRPD” value ([6]; water 6 % vol) was 1. The “Polymorphic Form by XRPD” value ([6]; water 8 % vol) was 1.

From patent publication US12491182B2, “Polymorphs of triazole antifungal compound PC945” (Pulmocide Limited, priority 2019, dated 2025)
